In the supplement of paper PMC9549728:
Counter-ions that a name gives are not always drawn.

What was measured:
Test in all cases: IC50 (viability, PrestoBlue) (log10 nM)
Conditions in all cases: exposure time: 72 h
[1] = system: murine gastric organoid RAS-activated (Kras G12D; Tp53 R172H)
Protocol: (§1)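 Murine gastric corpus organoids (normal uninduced; RAS-activated Kras G12D/Tp53 R172H; diffuse Cdh1/Apc loss; WNT-activated Apc loss/Tp53 R172H) were seeded in Matrigel into pre-spotted 384-well plates. The plates held a 196-compound library at 6.7 nM to 25,004 nM (9 doses) and were incubated 72 h. Viability was read by PrestoBlue fluorescence (560/590 nm). IC50 came from non-linear regression (Prism), reported as log10 IC50 in nM, mean of 3 passages x 2 wells.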

[2] = system: murine gastric organoid WNT-activated (Apc fl/fl; Tp53 R172H)
Protocol: as §1

[3] = system: murine normal gastric organoid
Protocol: as §1

[4] = system: murine gastric organoid diffuse (Cdh1 fl/fl; Apc fl/fl)
Protocol: as §1

Compound: Cc1nc(C(=O)NCC(=O)O)c(O)c2ccc(Oc3ccccc3)cc12 [Roxadustat (FG-4592)]
- IC50 (log10 nM) [1]: < 0.826
- IC50 (log10 nM) [2]: 1.23
- IC50 (log10 nM) [3]: 2.38
- IC50 (log10 nM) [4]: 3.27

Compound: O=C(Nc1cccc(Cl)c1)Nc1ncc(CCNc2ncnc3ccsc23)s1 [SNS-314]
- IC50 (log10 nM) [1]: 2.47
- IC50 (log10 nM) [2]: 2.87
- IC50 (log10 nM) [3]: 3.2
- IC50 (log10 nM) [4]: 4.02

Compound: Cc1cc(C)c(/C=C2\C(=O)Nc3ccccc32)[nH]1 [SU 5416]
- IC50 (log10 nM) [1]: 4.36
- IC50 (log10 nM) [2]: 3.77
- IC50 (log10 nM) [3]: 4.03
- IC50 (log10 nM) [4]: 4.33

Compound: Cn1cnc2c(F)c(Nc3ccc(Br)cc3Cl)c(C(=O)NOCCO)cc21 [Selumetinib]
- IC50 (log10 nM) [1]: 2.61
- IC50 (log10 nM) [2]: 3.32
- IC50 (log10 nM) [3]: 2.47
- IC50 (log10 nM) [4]: 3.15

Compound: CC(C)[C@H](O)C(=O)N[C@@H](C)C(=O)N[C@@H]1C(=O)N(C)CCc2ccccc21 [Semagacestat]
- IC50 (log10 nM) [1]: > 4.4
- IC50 (log10 nM) [2]: 2.37
- IC50 (log10 nM) [3]: 4.35
- IC50 (log10 nM) [4]: > 4.4

Compound: CNC(=O)c1cc(Oc2ccc(NC(=O)Nc3ccc(Cl)c(C(F)(F)F)c3)cc2)ccn1 [Sorafenib]
- IC50 (log10 nM) [1]: 3.98
- IC50 (log10 nM) [2]: 3.9
- IC50 (log10 nM) [3]: 3.78
- IC50 (log10 nM) [4]: 3.88

Compound: CN(N=O)C(=O)N[C@@H](C=O)[C@@H](O)[C@H](O)[C@H](O)CO [Streptozocin]
- IC50 (log10 nM) [1]: > 4.4
- IC50 (log10 nM) [2]: 4.07
- IC50 (log10 nM) [3]: 4.39
- IC50 (log10 nM) [4]: > 4.4

Compound: CCN(CC)CCNC(=O)c1c(C)[nH]c(/C=C2\C(=O)Nc3ccc(F)cc32)c1C [Sunitinib]
- IC50 (log10 nM) [1]: 3.93
- IC50 (log10 nM) [2]: 3.94
- IC50 (log10 nM) [3]: 3.8
- IC50 (log10 nM) [4]: 3.92

Compound: CC(=O)Nc1ccc(C(=O)Nc2ccccc2N)cc1 [Tacedinaline]
- IC50 (log10 nM) [1]: 3.87
- IC50 (log10 nM) [2]: 4.35
- IC50 (log10 nM) [3]: 4.34
- IC50 (log10 nM) [4]: 3.97

Compound: COc1cc2c(cc1OC)CN(CCc1ccc(NC(=O)c3cc(OC)c(OC)cc3NC(=O)c3cnc4ccccc4c3)cc1)CC2 [Tariquidar]
- IC50 (log10 nM) [1]: 3.73
- IC50 (log10 nM) [2]: 3.76
- IC50 (log10 nM) [3]: 4.26
- IC50 (log10 nM) [4]: 3.95

Compound: Cn1nnc2c(C(N)=O)ncn2c1=O [Temozolomide]
- IC50 (log10 nM) [1]: > 4.4
- IC50 (log10 nM) [2]: 4.02
- IC50 (log10 nM) [3]: 4.37
- IC50 (log10 nM) [4]: > 4.4

Compound: COc1cc([C@@H]2c3cc4c(cc3[C@@H](O[C@@H]3O[C@@H]5CO[C@@H](c6cccs6)O[C@H]5[C@H](O)[C@H]3O)[C@H]3COC(=O)[C@H]23)OCO4)cc(OC)c1O [Teniposide]
- IC50 (log10 nM) [1]: 1.83
- IC50 (log10 nM) [2]: 2.84
- IC50 (log10 nM) [3]: 1.79
- IC50 (log10 nM) [4]: 2.35

Compound: S=P(N1CC1)(N1CC1)N1CC1 [Thio-TEPA]
- IC50 (log10 nM) [1]: 4.17
- IC50 (log10 nM) [2]: 4.16
- IC50 (log10 nM) [3]: 4.21
- IC50 (log10 nM) [4]: > 4.4

Compound: CSc1ccc2c(c1)N(CCC1CCCCN1C)c1ccccc1S2 (stereo unspecified) [Thioridazine hydrochloride]
- IC50 (log10 nM) [1]: 4
- IC50 (log10 nM) [2]: 3.52
- IC50 (log10 nM) [3]: 3.9
- IC50 (log10 nM) [4]: 4.13

Compound: Cn1cncc1[C@@](N)(c1ccc(Cl)cc1)c1ccc2c(c1)c(-c1cccc(Cl)c1)cc(=O)n2C [Tipifarnib]
- IC50 (log10 nM) [1]: < 0.826
- IC50 (log10 nM) [2]: 3.16
- IC50 (log10 nM) [3]: 2.96
- IC50 (log10 nM) [4]: 3.73

Compound: O=C1NC(=O)[C@@H](c2cn3c4c(cccc24)CCC3)[C@@H]1c1c[nH]c2ccccc12 [Tivantinib]
- IC50 (log10 nM) [1]: 2.4
- IC50 (log10 nM) [2]: 2.79
- IC50 (log10 nM) [3]: 2.87
- IC50 (log10 nM) [4]: 3.1

Compound: COc1cc2nccc(Oc3ccc(NC(=O)Nc4cc(C)on4)c(Cl)c3)c2cc1OC [Tivozanib]
- IC50 (log10 nM) [1]: 3.6
- IC50 (log10 nM) [2]: 3.74
- IC50 (log10 nM) [3]: 2.5
- IC50 (log10 nM) [4]: > 4.4

Compound: CC[C@@]1(O)C(=O)OCc2c1cc1n(c2=O)Cc2cc3c(CN(C)C)c(O)ccc3nc2-1 [Topotecan hydrochloride]
- IC50 (log10 nM) [1]: 1.68
- IC50 (log10 nM) [2]: 2.36
- IC50 (log10 nM) [3]: 1.48
- IC50 (log10 nM) [4]: 2.4

Compound: CC(=O)Nc1cccc(-n2c(=O)n(C3CC3)c(=O)c3c(Nc4ccc(I)cc4F)n(C)c(=O)c(C)c32)c1 [Trametinib]
- IC50 (log10 nM) [1]: 1.33
- IC50 (log10 nM) [2]: 1.9
- IC50 (log10 nM) [3]: 1.36
- IC50 (log10 nM) [4]: 1.71

Compound: CC(C)Nc1cc(-c2c[nH]c(C(=O)N[C@H](CO)c3cccc(Cl)c3)c2)c(Cl)cn1 [Ulixertinib]
- IC50 (log10 nM) [1]: 3.09
- IC50 (log10 nM) [2]: 2.96
- IC50 (log10 nM) [3]: 2.79
- IC50 (log10 nM) [4]: 3.42

Compound: Oc1ncc(N(CCCl)CCCl)c(O)n1 [Uramustine]
- IC50 (log10 nM) [1]: 3.2
- IC50 (log10 nM) [2]: 3.68
- IC50 (log10 nM) [3]: 3.3
- IC50 (log10 nM) [4]: 3.69

Compound: CCCCC(=O)OCC(=O)[C@]1(O)Cc2c(O)c3c(c(O)c2[C@@H](O[C@H]2C[C@H](NC(=O)C(F)(F)F)[C@H](O)[C@H](C)O2)C1)C(=O)c1c(OC)cccc1C3=O [Valrubicin]
- IC50 (log10 nM) [1]: 2.49
- IC50 (log10 nM) [2]: 2.65
- IC50 (log10 nM) [3]: 2.43
- IC50 (log10 nM) [4]: 2.58

Compound: COc1cc2/c(=N/c3ccc(Br)cc3F)nc[nH]c2cc1OCC1CCN(C)CC1 [Vandetanib]
- IC50 (log10 nM) [1]: 2.63
- IC50 (log10 nM) [2]: 2.64
- IC50 (log10 nM) [3]: 3.95
- IC50 (log10 nM) [4]: 2.76

Compound: Clc1ccc(Nc2nnc(Cc3ccncc3)c3ccccc23)cc1 [Vatalanib]
- IC50 (log10 nM) [1]: 3.75
- IC50 (log10 nM) [2]: 3.61
- IC50 (log10 nM) [3]: 3.55
- IC50 (log10 nM) [4]: 4.26

Compound: CC[C@]1(O)C[C@@H]2CN(CCc3c([nH]c4ccccc34)[C@@](C(=O)OC)(c3cc4c(cc3OC)N(C)[C@H]3[C@@](O)(C(=O)OC)[C@H](OC(C)=O)[C@]5(CC)C=CCN6CC[C@]43[C@@H]65)C2)C1 [Vinblastine sulfate]
- IC50 (log10 nM) [1]: < 0.826
- IC50 (log10 nM) [2]: < 0.826
- IC50 (log10 nM) [3]: < 0.826
- IC50 (log10 nM) [4]: < 0.826

Compound: CC[C@]1(O)C[C@H]2CN(CCc3c([nH]c4ccccc34)[C@@](C(=O)OC)(c3cc4c(cc3OC)N(C=O)[C@H]3[C@@](O)(C(=O)OC)[C@H](OC(C)=O)[C@]5(CC)C=CCN6CC[C@]43[C@@H]65)C2)C1 [Vincristine sulfate]
- IC50 (log10 nM) [1]: 2.08
- IC50 (log10 nM) [2]: 2.19
- IC50 (log10 nM) [3]: 1.68
- IC50 (log10 nM) [4]: 1.89

Compound: CC[C@]12C=CCN3CC[C@@]4(c5cc([C@@]6(C(=O)OC)C[C@@H]7C[C@@H](C(C)(F)F)CN(Cc8c6[nH]c6ccccc86)C7)c(OC)cc5N(C)[C@H]4[C@@](O)(C(=O)OC)[C@@H]1OC(C)=O)[C@@H]32 [Vinflunine tartrate]
- IC50 (log10 nM) [1]: 2.32
- IC50 (log10 nM) [2]: 1.63
- IC50 (log10 nM) [3]: 2.09
- IC50 (log10 nM) [4]: 2.23

Compound: CC[C@@H]1C(=O)N(C)c2cnc(Nc3ccc(C(=O)N[C@H]4CC[C@H](N5CCN(CC6CC6)CC5)CC4)cc3OC)nc2N1C(C)C [Volasertib]
- IC50 (log10 nM) [1]: 2.09
- IC50 (log10 nM) [2]: 2.19
- IC50 (log10 nM) [3]: 1.98
- IC50 (log10 nM) [4]: 2.29

Compound: O=C(CCCCCCC(=O)Nc1ccccc1)NO [Vorinostat]
- IC50 (log10 nM) [1]: 3.28
- IC50 (log10 nM) [2]: 3.67
- IC50 (log10 nM) [3]: 3.62
- IC50 (log10 nM) [4]: 3.65

Compound: C[C@H](NC(=O)/C(C#N)=C/c1cccc(Br)n1)c1ccccc1 [WP1066]
- IC50 (log10 nM) [1]: 3.49
- IC50 (log10 nM) [2]: 3.26
- IC50 (log10 nM) [3]: 3.47
- IC50 (log10 nM) [4]: 3.52

Compound: O[C@@H](COc1cccc2ncccc12)CN1CCN([C@@H]2c3ccccc3[C@@H]3[C@H](c4ccccc42)C3(F)F)CC1 [Zosuquidar trihydrochloride]
- IC50 (log10 nM) [1]: 4.07
- IC50 (log10 nM) [2]: 4.03
- IC50 (log10 nM) [3]: 3.88
- IC50 (log10 nM) [4]: 4.02

Compound: COC(=O)[C@]12CCC(C)(C)C[C@H]1[C@H]1C(=O)C=C3[C@@]4(C)C=C(C#N)C(=O)C(C)(C)[C@@H]4CC[C@@]3(C)[C@]1(C)CC2 [bardoxolone methyl]
- IC50 (log10 nM) [1]: 2.38
- IC50 (log10 nM) [2]: 2.92
- IC50 (log10 nM) [3]: 2.61
- IC50 (log10 nM) [4]: 3.24

Compound: O=c1[nH]cc(F)c(=O)[nH]1 [fluorouracil]
- IC50 (log10 nM) [1]: 3.32
- IC50 (log10 nM) [2]: 4.09
- IC50 (log10 nM) [3]: 3.4
- IC50 (log10 nM) [4]: 3.28

Compound: NC(=O)N1CCC(CC(=O)N2CCC([C@H]3c4ncc(Br)cc4CCc4cc(Cl)cc(Br)c43)CC2)CC1 [lonafarnib]
- IC50 (log10 nM) [1]: 3.03
- IC50 (log10 nM) [2]: 3.47
- IC50 (log10 nM) [3]: 3.33
- IC50 (log10 nM) [4]: 4.3
